Measurements: patent US8222417B2, “Compound having 11β-HSD1 inhibitory activity” (Taisho Pharmaceutical Co., Ltd, priority 2007, dated 2012)
Where a name gives a salt, the structure may show the parent alone.

biological target: T1, 11β-HSD1 (Homo sapiens, UniProt P28845); assay: 11β-HSD1 inhibition test (human liver microsome, HTRF cortisol detection); format: biochemical; conditions: human liver microsome as enzyme source; cortisone 100 nM; 20° C., 80 minutes; generated cortisol quantified by HTRF
T1 construct: human liver microsome (enzyme source, Tissue Transformation Technologies); tissue Tissue Transformation Technologies; host or cells: human liver microsomes
Method: Test Example [11β-HSD1 Inhibition Test]
Test Compounds were Evaluated as Follows.
11β-HSD1 enzyme reaction was performed in a reaction solution of 100 μl total volume using 96-well polypropylene microplates. The reaction solution was prepared in 30 mM Tris-HCl (pH 7.4)/1 mM EDTA buffer to contain NADPH at a final concentration of 100 μM, G6P at a final concentration of 1 mM, human liver microsome (enzyme source, Tissue Transformation Technologies) at a final concentration of 0.8 μg/ml and 10 μl of a test compound dissolved in DMSO. The enzyme reaction was initiated by addition of cortisone at a final concentration of 100 nM. After incubation at 20° C. for 80 minutes, 10 μl of 1 mM 18β glycyrrhetinic acid, which is a non-specific inhibitor, was added to stop the reaction. Next, the amount of generated cortisol was quantified with a detection kit (Sceti Medical Labo K.K., Japan) according to the HTRF (Homogeneous Time-Resolved Fluorescence) method. This system detects fluorescence resonance energy transfer between europium-labeled anti-cortisol antibody and XL665-labeled cortisol. Upon addition of unlabeled cortisol, binding signals will be attenuated due to competitive reaction. Based on this principle, the amount of cortisol generated by the enzyme reaction was evaluated using a standard curve obtained from samples with known concentrations of cortisol included in the kit. The HTRF reaction was performed in 96-well half area microplates as follows: to 30 μl enzyme reaction solution, an anti-cortisol antibody solution (15 μl) and an XL665-labeled cortisol solution (15 μl) included in the kit were added, and the plates were vortexed at room temperature for 1 hour and further allowed to stand at 20° C. for 1 hour. 40 μl of this reaction solution was transferred to 384-well microplates and measured for its fluorescence. 18β Glycyrrhetinic acid was added to wells before initiation of the enzyme reaction and the amount of cortisol generated in these wells was used as a background level. Test compounds were evaluated using serial dilutions at a common ratio of 3 to calculate their IC50 values, assuming that the amount of cortisol generated in wells containing no test compound was set to 100% enzyme activity.

T1 sequence (P28845 whole entry): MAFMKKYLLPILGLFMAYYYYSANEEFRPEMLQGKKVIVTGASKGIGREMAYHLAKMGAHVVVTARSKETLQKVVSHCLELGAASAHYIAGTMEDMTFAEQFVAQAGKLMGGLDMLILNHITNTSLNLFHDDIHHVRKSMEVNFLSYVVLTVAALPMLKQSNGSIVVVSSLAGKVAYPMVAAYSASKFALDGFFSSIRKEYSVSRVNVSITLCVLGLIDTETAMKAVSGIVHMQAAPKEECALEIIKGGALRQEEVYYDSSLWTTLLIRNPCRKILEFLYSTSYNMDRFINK

Row | SMILES | IC50 [nM]
1 | COc1ccc2c(c1)N(C(=O)N[C@H]1C3CC4CC1C[C@](O)(C4)C3)CCC2 [Compound 5, N-(E-1-hydroxyadamantan-4-yl)-7-methoxy-3,4-dihydroquinoline-1(2H)-carboxamide] | 1.2
2 | O=C(OC1C2CC3CC1CC(O)(C3)C2)N1CCOc2ccccc21 (centres unmarked) [Compound 42b, E-5-hydroxyadamantan-2-yl 2,3-dihydro-4H-1,4-benzoxazine-4-carboxylate] | 4.6
3 | O=C(N[C@H]1C2CC3CC1C[C@](O)(C3)C2)N1CCCc2cccc(F)c21 [Compound 4, 8-fluoro-N-(E-1-hydroxyadamantan-4-yl)-3,4-dihydroquinoline-1(2H)-carboxamide] | 1.1
4 | O=C(N[C@H]1C2CC3CC1C[C@](O)(C3)C2)N1CCCc2c(F)cccc21 [Compound 1, 5-fluoro-N-(E-1-hydroxyadamantan-4-yl)-3,4-dihydroquinoline-1(2H)-carboxamide] | 1
5 | O=C(N[C@H]1C2CC3CC1C[C@](O)(C3)C2)N1CCOc2ccc(F)cc21 [Compound 19, 6-fluoro-N-(E-1-hydroxyadamantan-4-yl)-2,3-dihydro-4H-1,4-benzoxazine 4-carboxamide] | 3.5
6 | O=C(N[C@H]1C2CC3CC1C[C@](O)(C3)C2)N1CCOc2ccccc21 [Compound 16, N-(E-1-hydroxyadamantan-4-yl)-2,3-dihydro-4H-1,4-benzoxazine 4-carboxamide] | 1.5
7 | CN1CCN(C(=O)N[C@H]2C3CC4CC2C[C@](O)(C4)C3)c2ccccc21 [Compound 33, N-(E-5-hydroxyadamantan-2-yl)-4-methyl-3,4-dihydroquinoxaline-1(2H)-carboxamide hydrochloride] | 1.4
8 | O=C(NC1C2CC3CC(C2)CC1C3)N1CCOc2ccccc21 (centres unmarked) [Compound 34, N-adamantan-2-yl-2,3-dihydro-4H-1,4-benzoxazine-4-carboxamide] | 1.1
9 | Cc1cccc2c1N(C(=O)N[C@H]1C3CC4CC1C[C@](O)(C4)C3)CCO2 [Compound 25, N-(E-5-hydroxyadamantan-2-yl)-5-methyl-2,3-dihydro-4H-1,4-benzoxazine-4-carboxamide] | 1.1
10 | CO[C@]12CC3CC(C1)[C@@H](NC(=O)N1CCOc4ccccc41)C(C3)C2 [Compound 40, N-(E-1-methoxyadamantan-4-yl)-2,3-dihydro-4H-1,4-benzoxazine-4-carboxamide] | 1.1

The next lines start with the values.

Row | IC50 [nM] | SMILES
11 | 1 | O=C(N[C@H]1C2CC3CC1C[C@](F)(C3)C2)N1CCCc2ccccc21 [Compound 12, N-(E-1-fluoroadamantan-4-yl)-3,4-dihydroquinoline-1(2H)-carboxamide]
12 | 0.9 | O=C(N[C@H]1C2CC3CC1C[C@](O)(C3)C2)N1CCCc2cc(F)ccc21 [Compound 2, 6-fluoro-N-(E-1-hydroxyadamantan-4-yl)-3,4-dihydroquinoline-1(2H)-carboxamide]
13 | 0.6 | Cc1ccc2c(c1)N(C(=O)N[C@H]1C3CC4CC1C[C@](O)(C4)C3)CCC2 [Compound 6, N-(E-1-hydroxyadamantan-4-yl)-7-methyl-3,4-dihydroquinoline-1(2H)-carboxamide]
14 | 1 | O=C(N[C@H]1C2CC3CC1C[C@](O)(C3)C2)N1CCCc2ccc(F)cc21 [Compound 3, 7-fluoro-N-(E-1-hydroxyadamantan-4-yl)-3,4-dihydroquinoline-1(2H)-carboxamide]
15 | 0.9 | O=C(N[C@H]1C2CC3CC1C[C@](O)(C3)C2)N1CCCc2cc(Cl)ccc21 [Compound A-2, 6-chloro-N-[E-1-hydroxyadamantan-4-yl]-3,4-dihydroquinoline-1(2H)-carboxamide]
16 | 0.6 | NC(=O)[C@]12CC3CC(C1)[C@@H](NC(=O)N1CCOc4ccc(F)cc41)C(C3)C2 [Compound 38, N-(E-5-carbamoyladamantan-2-yl)-6-fluoro-2,3-dihydro-4H-1,4-benzoxazine-4-carboxamide]
17 | 0.8 | NC(=O)C12CC3CC(C1)C(NC(=O)N1CCCc4ccccc41)C(C3)C2 (centres unmarked) [Compound 11b, N-(E-5-carbamoyladamantan-2-yl)-3,4-dihydroquinoline-1(2H)-carboxamide]
